Data taken from the NIST ThermoML archive (doi:10.1016/j.jct.2018.11.015).
± gives the expanded uncertainty stated by the source.

Details: Liquid

For `COC(=O)c1ccccc1C(=O)OC` [dimethyl 1,2-benzenedicarboxylate], the “vapor or sublimation pressure” value (313.15 K, Transpiration method) was 0.00141 ± 0.00023 kPa, the “vapor or sublimation pressure” value (333.15 K, Transpiration method) was 0.00789 ± 0.00067 kPa and the “vapor or sublimation pressure” value (350.9 K, Closed cell (Static) method) was 0.0297 ± 0.0019 kPa. The “vapor or sublimation pressure” value (353.15 K, Transpiration method) was 0.0332 ± 0.0022 kPa, the “vapor or sublimation pressure” value (361.52 K, Closed cell (Static) method) was 0.0589 ± 0.0037 kPa and the “vapor or sublimation pressure” value (371.6 K, Closed cell (Static) method) was 0.1104 ± 0.0069 kPa. For the same compound, the “vapor or sublimation pressure” value (373.15 K, Transpiration method) was 0.122 ± 0.007 kPa, the “vapor or sublimation pressure” value (381.69 K, Closed cell (Static) method) was 0.1986 ± 0.012 kPa and the “vapor or sublimation pressure” value (391.77 K, Closed cell (Static) method) was 0.3453 ± 0.021 kPa. The “vapor or sublimation pressure” value (393.15 K, Transpiration method) was 0.391 ± 0.024 kPa, the “vapor or sublimation pressure” value (401.71 K, Closed cell (Static) method) was 0.5751 ± 0.035 kPa and the “vapor or sublimation pressure” value (411.72 K, Closed cell (Static) method) was 0.9413 ± 0.038 kPa. For the same compound, the “vapor or sublimation pressure” value (421.57 K, Closed cell (Static) method) was 1.491 ± 0.06 kPa and the “vapor or sublimation pressure” value (423.15 K, Transpiration method) was 1.668 ± 0.09 kPa.
With `CCCCOC(=O)c1ccccc1C(=O)OCc1ccccc1` [benzyl butyl 1,2-benzenedioate] the “vapor or sublimation pressure” value (343.15 K, Transpiration method) was 1.4e-05 ± 2e-06 kPa, the “vapor or sublimation pressure” value (353.15 K, Transpiration method) was 5.6e-05 ± 9e-06 kPa and the “vapor or sublimation pressure” value (373.15 K, Transpiration method) was 0.00039 ± 5e-05 kPa. The “vapor or sublimation pressure” value (393.15 K, Transpiration method) was 0.0022 ± 0.00031 kPa and the “vapor or sublimation pressure” value (423.15 K, Transpiration method) was 0.0238 ± 0.0034 kPa.
